Drawing on US20250367166A1, “NEXT GENERATION DIPROVOCIMS THAT ACTIVATE THE INNATE AND ADAPTIVE IMMUNE RESPONSE” (The Scripps Research Institute, priority 2022, published 2025), this text covers Emax and EC50 for five compounds.

The target of assay [1] is TLR1/TLR2 (Homo sapiens, UniProt O60603+Q15399). Briefly: TNF-α release from PMA-differentiated human THP-1 cells (ELISA).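 On all read-outs here: cells exposed to graded compound concentrations for 4 h, TNF-α quantified in supernatant, LPS as positive and DMSO as negative control, values are duplicate means.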 The conditions noted are these: for Emax: THP-1, 4 h, read-out: Efficacy (magnitude) of response versus diprovocim-1 (100%), THP-1; for EC50: read-out: EC50 (nM) (THP-1): EC50 TNF-α release from human THP-1 cells. On the technique in general: In an ELISA, binding on a coated surface is turned into a signal by an enzyme label.
Sequence of TLR1/TLR2 (Homo sapiens, UniProt O60603+Q15399) (Q15399 25-786): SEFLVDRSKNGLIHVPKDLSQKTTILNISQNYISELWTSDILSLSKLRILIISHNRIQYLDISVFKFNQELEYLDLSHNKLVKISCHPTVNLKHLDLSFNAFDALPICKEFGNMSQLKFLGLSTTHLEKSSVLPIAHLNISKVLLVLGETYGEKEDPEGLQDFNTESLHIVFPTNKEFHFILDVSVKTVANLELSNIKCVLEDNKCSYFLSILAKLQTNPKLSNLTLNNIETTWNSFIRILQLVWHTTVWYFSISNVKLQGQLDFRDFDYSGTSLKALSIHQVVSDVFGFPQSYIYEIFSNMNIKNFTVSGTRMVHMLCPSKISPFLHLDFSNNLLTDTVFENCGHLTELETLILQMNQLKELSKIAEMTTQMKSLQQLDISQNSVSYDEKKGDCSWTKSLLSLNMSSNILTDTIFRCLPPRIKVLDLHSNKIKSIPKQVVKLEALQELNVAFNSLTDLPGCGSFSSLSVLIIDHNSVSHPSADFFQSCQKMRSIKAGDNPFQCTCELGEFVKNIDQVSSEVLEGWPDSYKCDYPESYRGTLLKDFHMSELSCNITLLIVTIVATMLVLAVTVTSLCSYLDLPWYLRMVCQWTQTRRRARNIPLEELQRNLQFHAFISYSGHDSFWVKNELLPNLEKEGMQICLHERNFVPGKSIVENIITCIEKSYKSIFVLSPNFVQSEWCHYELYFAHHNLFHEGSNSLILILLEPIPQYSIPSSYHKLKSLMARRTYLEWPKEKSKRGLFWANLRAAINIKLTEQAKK
Sequence of TLR1/TLR2 (Homo sapiens, UniProt O60603+Q15399) (O60603 21-784): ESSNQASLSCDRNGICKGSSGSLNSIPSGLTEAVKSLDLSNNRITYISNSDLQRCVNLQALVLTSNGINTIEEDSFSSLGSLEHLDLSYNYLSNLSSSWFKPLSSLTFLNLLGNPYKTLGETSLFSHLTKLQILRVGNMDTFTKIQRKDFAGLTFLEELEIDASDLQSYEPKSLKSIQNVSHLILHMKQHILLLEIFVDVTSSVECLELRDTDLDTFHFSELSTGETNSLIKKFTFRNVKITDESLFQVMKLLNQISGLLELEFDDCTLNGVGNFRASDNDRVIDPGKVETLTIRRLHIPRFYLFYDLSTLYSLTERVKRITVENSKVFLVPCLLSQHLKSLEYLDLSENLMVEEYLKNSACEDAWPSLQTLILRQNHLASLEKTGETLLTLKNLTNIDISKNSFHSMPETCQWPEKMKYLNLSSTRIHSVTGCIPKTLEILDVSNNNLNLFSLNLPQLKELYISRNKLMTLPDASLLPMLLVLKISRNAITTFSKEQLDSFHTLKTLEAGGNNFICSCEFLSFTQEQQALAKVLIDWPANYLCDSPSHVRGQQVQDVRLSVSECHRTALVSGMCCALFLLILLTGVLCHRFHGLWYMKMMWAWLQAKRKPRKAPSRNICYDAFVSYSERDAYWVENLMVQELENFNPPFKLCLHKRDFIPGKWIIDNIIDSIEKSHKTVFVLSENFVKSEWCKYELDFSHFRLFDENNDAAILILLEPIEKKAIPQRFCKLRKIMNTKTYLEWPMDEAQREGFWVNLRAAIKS
Experimental: THP-1 (American Type Culture Collection) cells, a human monocytic leukemia cell line, were differentiated by treatment with 100 nM PMA (Sigma) in Roswell Park Memorial Institute (RPMI) cell culture medium [RPMI containing 10% vol/vol FBS (Gemini Bio Products), 1% penicillin and streptomycin (Life Technologies)] for 24 h. After that, the cells were washed with PBS and cultured in fresh RPMI cell culture medium for 24 h before use in studies. PMA-differentiated THP-1 cells were seeded onto 96-well plates at 0.5×10^5 cells per well and treated with systematically varied concentrations of the candidate compounds (dissolved in DMSO, and the final assay DMSO concentration (0.1%) was kept constant in all experiments) for 4 h. Ultra-pure LPS (dissolved in H2O, Enzo Life Sciences) was assessed alongside the compounds as a positive control and DMSO treated control was used as a negative control. Human TNF-α in the supernatants was measured by ELISA (eBioscience). This assay was used for establishing dose-response curves and measured EC50's. EC50's were calculated by Graphpad Prism. All data is the mean of duplicates and SD is within +10% of mean.

Assay [2] concerns the target TLR1/TLR2 (Mus musculus, UniProt Q9EPQ1+Q9QUN7). Briefly: TNF-α release from thioglycolate-elicited mouse peritoneal macrophages (ELISA). The conditions noted are these: for Emax: 4 h, read-out: Efficacy (magnitude) of response versus diprovocim-1 (100%), mouse macrophages; for EC50: read-out: EC50 (nM) (mouse): EC50 TNF-α release from mouse macrophages.
Experimental: Thioglycolate-elicited macrophages were recovered 4 days after i.p. injection of 2 mL BBL thioglycolate medium, brewer modified (4%; BD Biosciences) by peritoneal lavage with 5 mL phosphate buffered saline (PBS). […] Cells were seeded onto 96-well plates at 1×10^3 cells per well and treated with systematically varied concentrations of the candidate compounds (dissolved in DMSO, and final assay DMSO concentrations (0.5%) were kept constant in all experiments) for 4 h. Ultra-pure LPS (dissolved in H2O, Enzo Life Sciences) was assessed alongside the compounds as a positive control and DMSO treated controls. […] Mouse TNF-α in the supernatants was measured by ELISA kits according to the manufacturer's instructions (eBioscience). EC50's were calculated by Graphpad Prism. All data is mean of duplicates and SD is within ±10% of mean. Mouse cells were from wild type C57BL/6J mice.

One may read the EC50 as the midpoint of the concentration-response curve.

Like-named read-outs stand apart in the source and are kept apart here.

Sequence of TLR1/TLR2 (Mus musculus, UniProt Q9EPQ1+Q9QUN7) (Q9EPQ1 26-795): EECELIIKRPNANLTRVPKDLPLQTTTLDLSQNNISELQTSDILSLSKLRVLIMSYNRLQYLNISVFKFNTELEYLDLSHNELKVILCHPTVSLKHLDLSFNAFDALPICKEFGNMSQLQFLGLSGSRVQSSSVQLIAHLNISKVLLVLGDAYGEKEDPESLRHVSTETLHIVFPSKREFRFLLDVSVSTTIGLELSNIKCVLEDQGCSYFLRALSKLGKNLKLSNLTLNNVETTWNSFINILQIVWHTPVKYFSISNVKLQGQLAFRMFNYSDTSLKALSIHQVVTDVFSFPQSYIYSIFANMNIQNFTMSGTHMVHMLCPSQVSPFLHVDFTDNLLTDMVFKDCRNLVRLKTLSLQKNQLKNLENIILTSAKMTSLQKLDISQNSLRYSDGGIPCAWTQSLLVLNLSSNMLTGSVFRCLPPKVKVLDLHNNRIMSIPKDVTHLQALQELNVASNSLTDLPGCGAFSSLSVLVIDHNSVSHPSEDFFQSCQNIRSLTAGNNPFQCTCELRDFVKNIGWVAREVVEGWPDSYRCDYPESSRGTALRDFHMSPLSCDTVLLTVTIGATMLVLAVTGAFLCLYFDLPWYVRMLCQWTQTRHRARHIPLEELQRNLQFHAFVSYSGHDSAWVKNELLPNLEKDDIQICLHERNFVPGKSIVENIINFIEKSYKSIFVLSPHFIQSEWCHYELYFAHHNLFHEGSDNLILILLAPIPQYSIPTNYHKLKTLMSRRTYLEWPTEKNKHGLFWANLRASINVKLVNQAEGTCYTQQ
Sequence of TLR1/TLR2 (Mus musculus, UniProt Q9EPQ1+Q9QUN7) (Q9QUN7 25-784): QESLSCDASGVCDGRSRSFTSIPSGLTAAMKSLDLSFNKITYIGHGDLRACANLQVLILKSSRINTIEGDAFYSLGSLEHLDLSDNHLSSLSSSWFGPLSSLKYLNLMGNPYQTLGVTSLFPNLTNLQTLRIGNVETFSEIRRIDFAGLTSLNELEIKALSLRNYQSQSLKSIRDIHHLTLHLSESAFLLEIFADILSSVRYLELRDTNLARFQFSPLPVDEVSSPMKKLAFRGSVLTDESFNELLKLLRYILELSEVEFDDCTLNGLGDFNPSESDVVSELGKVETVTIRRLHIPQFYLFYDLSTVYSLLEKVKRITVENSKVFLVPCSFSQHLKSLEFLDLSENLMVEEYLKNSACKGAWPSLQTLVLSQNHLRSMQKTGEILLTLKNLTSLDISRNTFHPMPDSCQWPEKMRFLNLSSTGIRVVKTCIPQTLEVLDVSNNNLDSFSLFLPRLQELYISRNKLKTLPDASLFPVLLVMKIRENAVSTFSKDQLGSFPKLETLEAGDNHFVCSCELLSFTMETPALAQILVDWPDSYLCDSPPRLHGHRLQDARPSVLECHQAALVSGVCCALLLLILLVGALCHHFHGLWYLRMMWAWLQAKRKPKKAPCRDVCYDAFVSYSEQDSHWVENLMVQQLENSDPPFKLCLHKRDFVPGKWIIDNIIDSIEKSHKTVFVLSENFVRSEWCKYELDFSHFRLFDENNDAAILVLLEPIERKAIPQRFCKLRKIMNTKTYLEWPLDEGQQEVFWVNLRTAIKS

For the compound `C#CCN(C)CC(=O)OCCCCCCCCCCCCNC(=O)[C@@H]1CN(C(=O)c2ccc(C(=O)N3C[C@@H](C(=O)N[C@H]4C[C@@H]4c4ccccc4)[C@H](C(=O)N[C@H]4C[C@@H]4c4ccccc4)C3)cc2)C[C@H]1C(=O)N[C@H]1C[C@@H]1c1ccccc1` [Compound 53, 12-((3S,4S)-1-(4-((3S,4S)-3,4-Bis(((1S,2R)-2-phenylcyclopropyl)carbamoyl)pyrrolidine-1-carbonyl)-benzoyl)-4-(((1S,2R)-2-phenylcyclopropyl)carbamoyl)-pyrrolidine-3-carboxamido)dodecyl 2-(methyl(prop-2-yn-1-yl)amino)acetate], the values for the Emax at TLR1/TLR2 [1] and on TLR1/TLR2 [2] were 40% and 100%, respectively. In addition, the EC50 at TLR1/TLR2 [1] (Table 3) is 0.59 nM; at TLR1/TLR2 [2] (Table 3), 5.3 nM.
Take `CC(C)(C)OC(=O)N[C@@H](CSCc1ccccc1)C(=O)OCCCCCCCCCCCCNC(=O)[C@@H]1CN(C(=O)c2ccc(C(=O)N3C[C@@H](C(=O)N[C@H]4C[C@@H]4c4ccccc4)[C@H](C(=O)N[C@H]4C[C@@H]4c4ccccc4)C3)cc2)C[C@H]1C(=O)N[C@H]1C[C@@H]1c1ccccc1` [Compound 65, (R)-12-((3S,4S)-1-(4-((3S,4S)-3,4-Bis(((1S,2R)-2-phenylcyclopropyl)carbamoyl)pyrrolidine-1-carbonyl)-benzoyl)-4-(((1S,2R)-2-phenylcyclopropyl)carbamoyl)-pyrrolidine-3-carboxamido)dodecyl 3-(benzylthio)-2-((tert-butoxycarbonyl)amino)propanoate]: the values for the Emax on TLR1/TLR2 [1] and at TLR1/TLR2 [2] were 100% and 200%, respectively. In addition, the EC50 at TLR1/TLR2 [1] (Table 5) amounted to 18 nM; at TLR1/TLR2 [2] (Table 5) it was 360 nM.
With `O=C(CNC(=O)C(F)(F)F)OCCCCCCCCCCCCNC(=O)[C@@H]1CN(C(=O)c2ccc(C(=O)N3C[C@@H](C(=O)N[C@H]4C[C@@H]4c4ccccc4)[C@H](C(=O)N[C@H]4C[C@@H]4c4ccccc4)C3)cc2)C[C@H]1C(=O)N[C@H]1C[C@@H]1c1ccccc1` [Compound 41, 12-((3S,4S)-1-(4-((3S,4S)-3,4-Bis(((1S,2R)-2-phenyl-cyclopropyl)carbamoyl)pyrrolidine-1-carbonyl)benzoyl)-4-(((1S,2R)-2-phenylcyclopropyl)-carbamoyl)pyrrolidine-3-carboxamido)-dodecyl 2-(2,2,2-trifluoroacetamido)acetate], the Emax on TLR1/TLR2 [1] and on TLR1/TLR2 [2] was 100% each time. Also, the EC50 was 0.7 nM on TLR1/TLR2 [1] (Table 3) and 3.5 nM on TLR1/TLR2 [2] (Table 3).
As to `O=C(NCCCCCCCCc1ccc(O)cc1)[C@@H]1CN(C(=O)c2ccc(C(=O)N3C[C@@H](C(=O)N[C@H]4C[C@@H]4c4ccccc4)[C@H](C(=O)N[C@H]4C[C@@H]4c4ccccc4)C3)cc2)C[C@H]1C(=O)N[C@H]1C[C@@H]1c1ccccc1` [Compound 26, (3S,4S)-1-(4-((3S,4S)-3,4-Bis(((1S,2R)-2-phenylcyclo-propyl)carbamoyl)pyrrolidine-1-carbonyl)-benzoyl)-N^3-(8-(4-hydroxyphenyl)octyl)-N^4-((1S,2R)-2-phenylcyclo-propyl)pyrrolidine-3,4-dicarboxamide], the Emax is 90% at TLR1/TLR2 [1] and 380% at TLR1/TLR2 [2]. In addition, the EC50 on TLR1/TLR2 [1] (Table 1) came to 0.15 nM; on TLR1/TLR2 [2] (Table 1), 2.6 nM.
Regarding `CC(=O)OCCCCCCCCCCCCNC(=O)[C@@H]1CN(C(=O)c2ccc(C(=O)N3C[C@@H](C(=O)N[C@H]4C[C@@H]4c4ccccc4)[C@H](C(=O)N[C@H]4C[C@@H]4c4ccccc4)C3)cc2)C[C@H]1C(=O)N[C@H]1C[C@@H]1c1ccccc1` [Compound 32, 12-((3S,4S)-1-(4-((3S,4S)-3,4-Bis(((1S,2R)-2-phenyl-cyclopropyl)carbamoyl)pyrrolidine-1-carbonyl)benzoyl)-4-(((1S,2R)-2-phenylcyclopropyl)carbamoyl)pyrrolidine-3-carboxamido)dodecyl acetate], the figures for the Emax on TLR1/TLR2 [1] and on TLR1/TLR2 [2] were 130% and 140%, respectively. Moreover, the EC50 at TLR1/TLR2 [1] (Table 3) was found to be 0.14 nM; on TLR1/TLR2 [2] (Table 3), 1.5 nM.
